# Results published in PMC8372404 (Frontiers in Neuroscience, 2021).
# Where a SMILES comes first, the peptide text is derived from it.
# What was measured:
# [1] = Preliminary pharmacokinetic studies; assay type: in vivo; conditions: preliminary and ongoing pharmacokinetic studies
# Danio rerio [2] = experiment: Novel tank test (NTT); assay type: in vivo; conditions: exp group
# Procedure: (§1) Control groups were treated in parallel with vehicle alone. For drug injection, the fish were anesthetized briefly by placing them in 10°C water. The vehicle controls were tested in parallel.
# (§2) Behavioral testing was initiated 10 min after drug injection, starting with the novel tank test (NTT), followed immediately thereafter by the light–dark box (LDB) and the social preference test (SPT). The NTT was adapted from [Maximino et al. (2013)] with the behavior video-recorded and the data processed using EthoVision XT14 (Noldus). The distance traveled, speed, number of visits to the bottom, middle and top thirds of the aquarium, respectively, and the times spent in each of these zones during the initial 5 min in the tank were recorded. A decreased time spent at the surface of the NTT apparatus reflects a reduction in exploratory behavior or increased hiding motivation ([Sackerman et al., 2010]). The behavior in the LDB ([Maximino et al., 2011]) and SPT ([Parker et al., 2014]) was video recorded and processed using RealTimer (Open Science LCC, Russia). The fish were added to the center zone of a three-zone aquarium and allowed to adapt for 1–2 min before removal of the septa separating the center from the flanking zones. The time spent and the number of visits to the light and dark flanking zones and the latency to enter the lit zone were recorded during a 5-min session. Stress of fish is associated with increased time spent in the dark compartment (scototaxis) ([Maximino et al., 2011]). For the SPT, the residence time and the number of visits to the three equally sized zones (near the shoal, in the center zone of the aquarium, and near the wall opposite to the shoal) were assessed during a 5-min session. Increased shoal preference (shoaling reflex) is thought to represent a protective response to a predator ([Nguyen et al., 2014]). All behavioral testing was done in the light phase using 500 lux (NTT, LDB) or 200 lux (SPT) illumination.
# Danio rerio [3] = experiment: Light–dark box (LDB); assay type: in vivo; conditions: for LDB. Time spent in lit compartment, Median: 5 min session, exp group
# Procedure: as §1, §2
# Danio rerio [4] = experiment: Social preference test (SPT); assay type: in vivo; conditions: for SPT. Time spent out of shoaling zone, Median: 5 min session, exp group
# Procedure: as §1, §2
# BALB/c mice [5] = experiment: Elevated plus maze (EPM); assay type: in vivo
# Procedure: The open field test (OFT) was used to assess locomotion. The total distance traveled in a 5 min session was recorded using Ethovision XT14 ([Prut and Belzung, 2003]). The elevated plus maze (EPM) and the marble burying test (MBT) were used to assess anxiolytic-like drug activity. For the EPM ([Pellow et al., 1985]), the percentage of time spent in the open arms, the percentage of open arm entries, and the number of total arm entries during a 5-min session were recorded using Ethovision. “Anxiety Index” (AI), an integrative behavioral measure in the EPM was calculated as follows: 100 × {1 − [(time spent on open arms/total time on the maze)/2 + (number of entries to the open arms/total exploration on the maze)/2]} ([Cohen et al., 2011]). The MBT ([Njung’e and Handley, 1991]) was carried out in a 19 × 29 × 13 cm cage filled 5 cm deep with wood-chip bedding. Twenty marbles (5.2 g, 15 mm diameter, randomly colored) were evenly placed on the surface of the bedding in four rows of five pieces. At the end of a 30 min test, the animal was removed, and the marbles buried in bedding by at least two-thirds were recorded. […] The forced swim test (FST) was used for a preliminary assessment of antidepressant drug activity as described ([Colelli et al., 2014]). Briefly, on day one the mice were exposed to a 10 min pre-swim in a cylinder filled with 24 ± 1°C water. The next day they were re-exposed to the same apparatus for a 5 min test session with the behavior video recorded. The total time spent immobile was quantitated off-line visually. The interval between sequential behavioral tests was 2–3 days with the sequence OFT, EPM, MBT, and FST. All the testing and data analyses were performed by experimenters blind to treatment.
# BALB/c mice [6] = experiment: Open field test (OFT); assay type: in vivo; conditions: diazepam 0.75 mg/kg
# Procedure: (§3) The open field test (OFT) was used to assess locomotion. The total distance traveled in a 5 min session was recorded using Ethovision XT14 ([Prut and Belzung, 2003]). The elevated plus maze (EPM) and the marble burying test (MBT) were used to assess anxiolytic-like drug activity. For the EPM ([Pellow et al., 1985]), the percentage of time spent in the open arms, the percentage of open arm entries, and the number of total arm entries during a 5-min session were recorded using Ethovision. “Anxiety Index” (AI), an integrative behavioral measure in the EPM was calculated as follows: 100 × {1 − [(time spent on open arms/total time on the maze)/2 + (number of entries to the open arms/total exploration on the maze)/2]} ([Cohen et al., 2011]). The MBT ([Njung’e and Handley, 1991]) was carried out in a 19 × 29 × 13 cm cage filled 5 cm deep with wood-chip bedding. Twenty marbles (5.2 g, 15 mm diameter, randomly colored) were evenly placed on the surface of the bedding in four rows of five pieces. At the end of a 30 min test, the animal was removed, and the marbles buried in bedding by at least two-thirds were recorded. […] The next day they were re-exposed to the same apparatus for a 5 min test session with the behavior video recorded. The total time spent immobile was quantitated off-line visually. […]
# BALB/c mice [7] = experiment: Marble burying test (MBT); assay type: in vivo; conditions: diazepam 0.75 mg/kg
# Procedure: as §3
# BALB/c mice [8] = experiment: Forced swim test (FST); assay type: in vivo; conditions: LCGA-17 5 mg/kg (none of the other dosages); diazepam 0.75 mg/kg
# Procedure: as §3
# [9] = molecular target: [3H]-LCGA-17 binding site in rat brain membranes (putative α2δ); experiment: [3H]-LCGA-17 radioligand competition binding assay; conditions: rat brain membranes
# [10] = LCGA-17 groups 1, 5, 10, 20 mg/kg combined
# [11] = LCGA-17 20 mg/kg + bicuculline 5 mg/kg
# [12] = bicuculline study: LCGA-17 20 mg/kg or bicuculline 5 mg/kg alone
structure (smiles),measurement,setting,value
"NC(=O)CC[C@H](NC(=O)[C@@H](N)Cc1ccccc1)C(=O)N[C@@H](CO)C(=O)N[C@@H](CCC(=O)O)C(=O)O [LCGA-17, PheGlnSerGlu] (H-FQSE-OH; N-terminus and C-terminus assumed)",in vivo half-life,[1],minutes
CN1C(=O)CN=C(c2ccccc2)c2cc(Cl)ccc21 [Diazepam],"NTT. Distance traveled, Median",Danio rerio [2]; 1.25 mg/kg,887 cm
same,"NTT. Distance traveled, Median",Danio rerio [2]; 5 mg/kg,595 cm
same,"LDB. Time spent in lit compartment, Median",Danio rerio [3]; 1.25 mg/kg,21 s
same,"LDB. Time spent in lit compartment, Median",Danio rerio [3]; 5 mg/kg,177 s
same,"LDB, effect on time spent in the lit compartment vs vehicle","Danio rerio [3]; most informative dosage, Figure 2C",anxiolytic-like effect
same,"SPT. Time spent out of shoaling zone, Median",Danio rerio [4]; 1.25 mg/kg,20 s
same,"SPT. Time spent out of shoaling zone, Median",Danio rerio [4]; 5 mg/kg,21 s
same,"SPT, effect on time spent out of the shoaling zone vs vehicle","Danio rerio [4]; most informative dosage, Figure 2D",anxiolytic-like effect
same,"EPM, effect on percentage of time spent on open arms vs vehicle","BALB/c mice [5]; mouse, in vivo",increased
same,"OFT, effect on distance traveled vs vehicle","BALB/c mice [6]; LCGA-17 5, 20 mg/ml as printed, 5 min session",modestly increased
same,"OFT, effect on distance traveled vs vehicle",BALB/c mice [6]; [10],increased
same,"MBT, effect on number of marbles buried vs vehicle","BALB/c mice [7]; LCGA-17 5, 20 mg/kg, 30 min test",reduced
same,"MBT, effect on number of marbles buried vs vehicle",BALB/c mice [7]; [10],reduced
same,"FST, effect on total time spent immobile vs vehicle",BALB/c mice [8],failed to affect the behavior
CN1CCc2cc3c(cc2[C@H]1[C@@H]1OC(=O)c2c1ccc1c2OCO1)OCO3 [Bicuculline],IC50,"[9]; competition of [3H]-LCGA-17 (16 nM) binding, Table S1",> 100 µM
same,cross-reactivity with / competition at the [3H]-LCGA-17 binding site,[9]; result in words,no cross-reactivity
same,"EPM, effect of co-administered bicuculline on the LCGA-17 effect on % time on open arms",BALB/c mice [5]; [11],completely blocked
same,"EPM, effect of co-administered bicuculline on the LCGA-17 effect on open arm entries",BALB/c mice [5]; [11],reduced the LCGA-17 effect
same,"EPM, effect of cotreatment with bicuculline on the LCGA-17 effect on AI",BALB/c mice [5]; [11],reversed
same,"EPM, effect on open arm entries, single agent",BALB/c mice [5]; bicuculline 5 mg/kg alone,without effects
same,"EPM, effect on total arm entries","BALB/c mice [5]; bicuculline 5 mg/kg main effect, post hoc pairwise comparisons not significant",slightly reduced
same,"EPM, effect on % time on open arms, single agent",BALB/c mice [5]; [12],no effect
same,"EPM, effect on Anxiety Index (AI), single agent",BALB/c mice [5]; [12],without effects
